Calls of active or inactive are those of the source. How the calls were made is not given here.
Tested on: GENE-TOX genotoxicity assays, various organisms and cells
Experiment: GENE-TOX mutagenicity studies
Conditions: for call: Assay Type: In vivo carcinogenicity studies
[1] = Species/Cell Type: Chinese hamster lung (V79) cells, Assay Type: Forward gene mutation at the HPRT or ouabain locus, Assay Code: V79+, Evaluation Type: Evaluation A (Pre-1980)
[2] = Species/Cell Type: Drosophila melanogaster, Assay Type: Sex-linked recessive lethal gene mutation, Assay Code: SRL+, Evaluation Type: Evaluation A (Pre-1980)
[3] = Species/Cell Type: Escherichia coli polA (W3119 vs P3478), Assay Type: Rec-assay, DNA effects (bacterial DNA repair), Assay Code: RE1+, Evaluation Type: Evaluation A (Pre-1980)
[4] = Species/Cell Type: Nonhuman, Assay Code: CCG+L, Evaluation Type: Evaluation A (Pre-1980)
[5] = Species/Cell Type: Nonhuman, Assay Type: Sister-chromatid exchange (SCE) in vivo, Assay Code: SC3+, Evaluation Type: Evaluation B (Post-1980)
[6] = Species/Cell Type: Rat primary hepatocytes, Assay Type: Unscheduled DNA synthesis (UDS) in vitro, DNA effects, Assay Code: UDP+, Evaluation Type: Evaluation A (Pre-1980)
[7] = Species/Cell Type: Saccharomyces cerevisiae, Assay Type: Mitotic recombination or gene conversion, Assay Code: YEH+, Evaluation Type: Evaluation A (Pre-1980)
[8] = Species/Cell Type: Salmonella typhimurium (one or more of the five standard strains: TA98, TA100, TA1535, TA1537, and TA1538), Assay Type: Histidine reverse gene mutation, Ames assay, Assay Code: SAL+, Evaluation Type: Evaluation A (Pre-1980)
[9] = Species/Cell Type: Salmonella typhimurium, Assay Type: Forward and reverse gene mutation, host-mediated assay, Assay Code: HMA+, Evaluation Type: Evaluation A (Pre-1980)
[10] = Species/Cell Type: Salmonella typhimurium (one or more of the five standard strains: TA98, TA100, TA1535, TA1537, and TA1538), Assay Type: Histidine reverse gene mutation, Ames assay, Assay Code: SALT, Evaluation Type: Evaluation A (Pre-1980)
[11] = Species/Cell Type: Salmonella typhimurium (one or more of the five standard strains: TA98, TA100, TA1535, TA1537, and TA1538), Assay Type: Histidine reverse gene mutation, Ames assay, Assay Code: SAL+*, Activation: With metabolic activation, Evaluation Type: Evaluation A (Pre-1980)
[12] = Species/Cell Type: Nonhuman, Assay Type: Sister-chromatid exchange (SCE) in vitro, Assay Code: SC2+D, Dose Response: With dose response, Evaluation Type: Evaluation B (Post-1980)
[13] = Species/Cell Type: Nonhuman, Assay Code: CCG+, Evaluation Type: Evaluation A (Pre-1980)

With CC(=O)ON(C(C)=O)c1ccc2c(c1)Cc1ccccc1-2 the mutagenic call [1] was “active; positive”, the mutagenic call [2] was “active; positive” and the mutagenic call [3] was “active; positive”. For the same compound, the mutagenic call (Species/Cell Type: Fischer rat embryo (RLV/1706) cells, Assay Type: Cell transformation, viral enhanced, Assay Code: CTR+, Evaluation Type: Evaluation A (Pre-1980)) was “active; positive”, the mutagenic call (Species/Cell Type: Human diploid fibroblasts, Assay Type: Unscheduled DNA synthesis (UDS) in vitro, DNA effects, Assay Code: UDH+D, Dose Response: With dose response, Evaluation Type: Evaluation A (Pre-1980)) was “active; positive” and the mutagenic call (Species/Cell Type: Human lymphocytes, Assay Type: Sister-chromatid exchange (SCE) in vitro, Assay Code: SCL+, Evaluation Type: Evaluation B (Post-1980)) was “active; positive”. The mutagenic call (Species/Cell Type: Human, Assay Type: Sister-chromatid exchange (SCE) in vitro, Assay Code: SC1+, Evaluation Type: Evaluation A (Pre-1980)) was “active; positive”, the mutagenic call (Species/Cell Type: Mouse (BALB/c-3T3) cells, Assay Type: Cell transformation, Assay Code: CTB+, Evaluation Type: Evaluation A (Pre-1980)) was “active; positive” and the mutagenic call (Species/Cell Type: Mouse (C3H/10T1/2) cells, Assay Type: Cell transformation, Assay Code: CTH+D, Dose Response: With dose response, Evaluation Type: Evaluation A (Pre-1980)) was “active; positive”. The mutagenic call (Species/Cell Type: Mouse embryo (AKR/ME) cells, Assay Type: Cell transformation, Assay Code: CTK+, Evaluation Type: Evaluation A (Pre-1980)) was “active; positive”, the mutagenic call (Species/Cell Type: Neurospora crassa, Assay Type: Reverse gene mutation, Assay Code: NER+, Evaluation Type: Evaluation A (Pre-1980)) was “active; positive” and the call [4] was “active; positive”. For the same compound, the mutagenic call (Species/Cell Type: Nonhuman, Assay Type: Sister-chromatid exchange (SCE) in vitro, Assay Code: SC2+D, Dose Response: With dose response, Evaluation Type: Evaluation A (Pre-1980)) was “active; positive”, the mutagenic call [5] was “active; positive” and the mutagenic call (Species/Cell Type: Nonhuman, Assay Type: Sister-chromatid exchange (SCE) in vivo, Assay Code: SC3T, Evaluation Type: Evaluation A (Pre-1980)) was “no conclusion”. For the same compound, the mutagenic call [6] was “active; positive”, the mutagenic call (Species/Cell Type: Saccharomyces cerevisiae, Assay Type: Mitotic recombination or gene conversion, Assay Code: YEC+, Evaluation Type: Evaluation A (Pre-1980)) was “active; positive” and the mutagenic call [7] was “active; positive”. The mutagenic call [8] was “active; positive”, the mutagenic call [9] was “active; positive” and the mutagenic call (Species/Cell Type: Syrian hamster embryo (SA7/SHE) cells, Assay Type: Cell transformation, viral enhanced, Assay Code: CT7+, Evaluation Type: Evaluation A (Pre-1980)) was “active; positive”. The mutagenic call (Species/Cell Type: Syrian hamster embryo (SHE) cells, Assay Type: Cell transformation, clonal assay, Assay Code: CTC+D, Dose Response: With dose response, Evaluation Type: Evaluation A (Pre-1980)) was “active; positive” and the mutagenic call (Species/Cell Type: Syrian hamster embryo (SHE) cells, Assay Type: Cell transformation, focus assay, Assay Code: CTF+, Evaluation Type: Evaluation A (Pre-1980)) was “active; positive”.
C[C@]12C=CC(=O)C=C1CC[C@@H]1[C@@H]2CC[C@@]2(C)[C@H]1CC[C@]2(C)O was tested, and the mutagenic call (Species/Cell Type: Human, Sex: Male, Assay Type: Sperm morphology, Assay Code: SPH+, Evaluation Type: Evaluation A (Pre-1980)) was “active; positive”.
For COc1ccc(Cl)cc1C(=O)NCCc1ccc(S(=O)(=O)NC(=O)NC2CCCCC2)cc1, the mutagenic call (Species/Cell Type: Mammalian polychromatic erythrocytes, Assay Type: Micronucleus test, chromosome aberrations, Assay Code: MNTT, Evaluation Type: Evaluation B (Post-1980)) was “no conclusion” and the mutagenic call (Species/Cell Type: Nonhuman, Assay Type: Sister-chromatid exchange (SCE) in vivo, Assay Code: SC3T, Evaluation Type: Evaluation B (Post-1980)) was “no conclusion”.
With Nc1nc(-c2csc(N)n2)cs1 the mutagenic call [10] was “no conclusion”.
With C=C(Cl)CCl the mutagenic call [8] was “active; positive”.
For CCCCCCCC(=O)N(C)N=O, the mutagenic call [7] was “active; positive”.
With Nc1cc2c3ccccc3ccc2c2ccccc12 the mutagenic call [11] was “active; positive”.
COc1cc(C)c(-c2csc(N(C)C(=O)Nc3ccc(Cl)cc3)n2)cc1OC was tested, and the mutagenic call [9] was “active; positive”.
In the case of NCCCCNCCCN, the mutagenic call [10] is reported as “no conclusion”.
With NCCS the mutagenic call (Species/Cell Type: Escherichia coli polA (W3119 vs P3478), Assay Type: Rec-assay, DNA effects (bacterial DNA repair), Assay Code: RE1T, Evaluation Type: Evaluation A (Pre-1980)) was “no conclusion”, the mutagenic call (Species/Cell Type: Human lymphocytes, Assay Type: Sister-chromatid exchange (SCE) in vitro, Assay Code: SCLT, Evaluation Type: Evaluation B (Post-1980)) was “no conclusion” and the mutagenic call (Species/Cell Type: Human, Assay Type: Sister-chromatid exchange (SCE) in vitro, Assay Code: SC1T, Evaluation Type: Evaluation B (Post-1980)) was “no conclusion”. The mutagenic call (Species/Cell Type: Neurospora crassa, Assay Type: Reverse gene mutation, Assay Code: NER-, Evaluation Type: Evaluation A (Pre-1980)) was “inactive; negative”, the mutagenic call [12] was “active; positive” and the mutagenic call [10] was “no conclusion”.
With O=CNc1nc(-c2cc([N+](=O)[O-])cs2)cs1 the mutagenic call [8] was “active; positive”.
With CCCCN(CCCC)N=O the mutagenic call [1] was “active; positive”, the mutagenic call (Species/Cell Type: Chinese hamster ovary (CHO) cells, Assay Type: Forward gene mutation at the HPRT locus, Assay Code: CHO+*, Activation: With metabolic activation, Evaluation Type: Evaluation B (Post-1980)) was “active; positive” and the mutagenic call (Species/Cell Type: Human diploid fibroblasts, Assay Type: Unscheduled DNA synthesis (UDS) in vitro, DNA effects, Assay Code: UDHT, Evaluation Type: Evaluation A (Pre-1980)) was “no conclusion”. For the same compound, the mutagenic call (Species/Cell Type: Mammalian polychromatic erythrocytes, Assay Type: Micronucleus test, chromosome aberrations, Assay Code: MNTT, Evaluation Type: Evaluation A (Pre-1980)) was “no conclusion”, the mutagenic call (Species/Cell Type: Mouse, Sex: Male, Assay Type: Sperm morphology, Assay Code: SPI-, Evaluation Type: Evaluation A (Pre-1980)) was “inactive; negative” and the mutagenic call (Species/Cell Type: Nonhuman, Assay Type: Chromosome aberrations in vitro, Assay Code: CY&-, Evaluation Type: Evaluation A (Pre-1980)) was “inactive; negative”. For the same compound, the call [13] was “active; positive”, the mutagenic call [12] was “active; positive” and the mutagenic call (Species/Cell Type: Nonhuman, Assay Type: Sister-chromatid exchange (SCE) in vitro, Assay Code: SC2T, Evaluation Type: Evaluation A (Pre-1980)) was “no conclusion”. The mutagenic call [5] was “active; positive” and the mutagenic call [11] was “active; positive”.
With C[CH2][Hg][S]c1ccc(OS(=O)O)cc1 the mutagenic call (Species/Cell Type: Saccharomyces cerevisiae, Assay Type: Aneuploidy, chromosome aberrations, Assay Code: YEN+, Evaluation Type: Evaluation A (Pre-1980)) was “active; positive”.
For C=CC(OC(C)=O)c1ccc2c(c1)OCO2 (stereo not drawn), the mutagenic call [3] was “active; positive”, the mutagenic call [7] was “active; positive” and the mutagenic call [8] was “active; positive”.
In the case of Clc1cccc(Cl)c1, the mutagenic call (Species/Cell Type: Mammalian polychromatic erythrocytes, Assay Type: Micronucleus test, chromosome aberrations, Assay Code: MNT+, Evaluation Type: Evaluation B (Post-1980)) is reported as “active; positive”.
For NC[C@H](O)CCl, the mutagenic call (Species/Cell Type: Rat, Sex: Male, Assay Type: Sperm morphology, Assay Code: SPA+, Evaluation Type: Evaluation A (Pre-1980)) was “active; positive” and the mutagenic call (Species/Cell Type: Rodents, Sex: Male, Assay Type: Dominant lethal test, Assay Code: DLT-, Evaluation Type: Evaluation A (Pre-1980)) was “inactive; negative”.
With COc1cc2c(c3oc(=O)c4c(c13)CCOC4=O)[C@@H]1C=CO[C@@H]1O2 the mutagenic call (Species/Cell Type: Bacillus subtilis (H17 vs M45), Assay Type: Rec-assay, spot test, DNA effects (bacterial DNA repair), Assay Code: REW+, Evaluation Type: Evaluation A (Pre-1980)) was “active; positive”, the mutagenic call (Species/Cell Type: Human diploid fibroblasts, Assay Type: Unscheduled DNA synthesis (UDS) in vitro, DNA effects, Assay Code: UDH+, Evaluation Type: Evaluation A (Pre-1980)) was “active; positive” and the mutagenic call (Species/Cell Type: Neurospora crassa, Assay Type: Forward gene mutation, Assay Code: NEF+, Evaluation Type: Evaluation A (Pre-1980)) was “active; positive”. For the same compound, the call [4] was “active; positive”, the mutagenic call (Species/Cell Type: Nonhuman, Assay Type: Sister-chromatid exchange (SCE) in vitro, Assay Code: SC2+D*, Activation: With metabolic activation, Dose Response: With dose response, Evaluation Type: Evaluation B (Post-1980)) was “active; positive” and the mutagenic call [6] was “active; positive”. The mutagenic call (Species/Cell Type: Saccharomyces cerevisiae, Assay Type: Mitotic recombination or gene conversion, Assay Code: YEC-, Evaluation Type: Evaluation A (Pre-1980)) was “inactive; negative” and the mutagenic call [11] was “active; positive”.
For Cc1cc2nc3c(cc(N)c4ccccc43)oc-2cc1=[N+](C)C, the mutagenic call (Species/Cell Type: Bacillus subtilis (H17 vs M45), Assay Type: Rec-assay, spot test, DNA effects (bacterial DNA repair), Assay Code: REW-, Evaluation Type: Evaluation A (Pre-1980)) was “inactive; negative”.
For C/C=C1/C[C@@H](C)[C@](O)(CO)C(=O)OCC2=CCN3CC[C@@H](OC1=O)[C@@H]23, the mutagenic call [2] was “active; positive” and the mutagenic call [11] was “active; positive”.
In the case of CN=[N+](C)[O-], the mutagenic call [2] is reported as “active; positive”, the mutagenic call (Species/Cell Type: Mouse (BALB/c-3T3) cells, Assay Type: Cell transformation, Assay Code: CTB-, Evaluation Type: Evaluation A (Pre-1980)) is reported as “inactive; negative” and the call [13] is reported as “active; positive”. The mutagenic call [11] was “active; positive” and the mutagenic call [9] was “active; positive”.

From PubChem BioAssay AID1259408 (Genetic Toxicology Data Bank (GENE-TOX), 2018)
